Reference: the NIST ThermoML archive (doi:10.1016/j.tca.2008.10.020)
Numbers after ± are expanded uncertainties.

Experiments:
[1] = Crystal 2; DTA
[2] = Molar enthalpy of transition or fusion; conditions: Crystal 2; DSC

## [Cl][Pt][Cl] [platinous chloride]
[1]
  Triple point temperature: 660 ± 10 K
[2]
  Molar enthalpy of transition or fusion: 0.0399 ± 0.0227 kcal/mol
